This is an account of results in US20250073189A1, “NATURAL DIETARY SUPPLEMENT FOR MENTAL HEALTH” (Mind Pop LLC, priority 2023, published 2025).

The nature of data set [1]: Inventors' unspecified tests and research on single ingredients of the supplement. The class given is in vivo.
Description: Caffeine is far and away the most widely known compound in the composition, however, the present invention uses the caffeine as a clean source of energy to go along with methylliberine and theacrine.
Data set [2] is described as follows: Inventors' dose testing of theacrine (50-400 mg). The settings on record: according to research and trials; unlike caffeine. The class given is in vivo. As for the experimental part:
Theacrine advances the beneficial effects of the compounds of this invention in unexpected ways. […] Throughout the studies pertaining to this invention, it has been discovered that low blood pressure is paramount for the proper firing of synapses and proper chemical balance in the brain. Testing in doses from 50-400 mg of theacrine have narrowed the optimum range to 125-150 mg, and more particularly about 140 mg. […] This is made possible by the waste removal from phosphatidylserine and enhanced by alpha-glycerylphosphorylcholine which spreads these effects beyond the brain, throughout the entire body.

With `Cn1c(=O)c2c(ncn2C)n(C)c1=O` [Caffeine, reference compound], the cognitive effects entry in data set [1] (70 mg of caffeine) is given as “tremendous cognitive effects”. For `COc1nc2c(c(=O)n1C)n(C)c(=O)n2C` [Methylliberine], the “energy boost in combination with the other ingredients” value in data set [1] (at precisely 140 mg, with caffeine and theacrine) is “unexpected energy boost”.

As to `Cn1c(=O)c2c(n(C)c1=O)n(C)c(=O)n2C` [Theacrine], in data set [2], the “effect on blood pressure” value is “does not seem to significantly affect blood pressure”. As to `C[N+](C)(C)CCOP(=O)([O-])OC[C@H](O)CO` [alpha-glycerylphosphorylcholine, Alpha-glycerylphosphorylcholine], the “effect on muscular output and reaction times” value in data set [1] (many tests and much research) is “increase muscular output and reaction times”. For Phosphatidylserine, the “effectiveness as supplementary ingredient (membrane functions, nutrient entry, cortisol modulation, waste exit)” value in data set [1] (in vivo) is recorded as “unexpectedly effective”.
